Earlier results as cited in patent US11678659B2, “Use as rodenticides of compounds that inhibit blood coagulation” (priority 2014, dated 2023).

Columns and labels:
[1] = molecular target: T1, thrombin receptor PAR-1 (Homo sapiens, UniProt P25116)
T1 construct: endogenous in cells; host or cells: study subjects (in vivo), platelets
T1 sequence (P25116 22-425): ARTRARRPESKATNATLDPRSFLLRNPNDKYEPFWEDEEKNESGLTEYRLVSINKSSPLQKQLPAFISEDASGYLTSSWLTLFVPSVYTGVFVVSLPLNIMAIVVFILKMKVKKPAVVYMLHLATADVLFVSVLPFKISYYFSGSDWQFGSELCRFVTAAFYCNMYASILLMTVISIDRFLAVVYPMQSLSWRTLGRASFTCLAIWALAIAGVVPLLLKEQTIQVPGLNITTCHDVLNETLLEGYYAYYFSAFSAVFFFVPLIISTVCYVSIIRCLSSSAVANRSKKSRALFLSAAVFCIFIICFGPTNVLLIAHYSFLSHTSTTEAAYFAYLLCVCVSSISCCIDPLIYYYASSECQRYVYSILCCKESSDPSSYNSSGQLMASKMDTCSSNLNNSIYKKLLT

[2] = molecular target: T2, thrombin (Homo sapiens, UniProt P00734); conditions: administration for more than 35 days
T2 construct: from tissue; host or cells: blood of human subjects (in vivo)

SMILES | bleedings observed ([1]; one study) | liver enzymes ([1]; two phase II studies) | liver toxicity [2]
Br.CCOc1cc2c(c(F)c1OCC)C(=N)N(CC(=O)c1cc(N3CCOCC3)c(OC)c(C(C)(C)C)c1)C2 [Atopaxar, 1-(3-tert-butyl-4-methoxy-5-morpholin-4-yl-phenyl)-2-(5,6-diethoxy-4-fluoro-3-imino-1H-isoindol-2-yl)ethanone-hydrobromide] | not statistically significant | increase in liver enzymes | 
CCOC(=O)CN[C@@H](C(=O)N1CC[C@H]1C(=O)NCc1ccc(/C(N)=N\O)cc1)C1CCCCC1 [ximelagatran] |  |  | risk of liver toxicity
